Columns and labels:
[1] = system: L6-myotubes; assay: Glucose uptake in differentiated L6-myotubes (Biological Example 2); assay type: cell-based; settings: glucose uptake in differentiated L6-myotubes, compound at 10 μM, activity relative to isoproterenol at 10 μM; for Emax at 10 µM: read-out: Biological example 2 (GU)
Method in brief: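 Differentiated L6 myotubes were serum-starved overnight in 0.5% fatty-acid-free BSA and then stimulated with compound or isoprenaline at 1×10^−5 M final. After 1 h 40 min cells were washed and re-dosed in glucose-free medium. Twenty minutes later, uptake of 50 nM ^3H-2-deoxyglucose over 10 min was measured by scintillation counting of NaOH lysates.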

[2] = system: L6-myotubes; assay: Measurement of intracellular cAMP levels in differentiated L6-myotubes (Biological Example 3); assay type: cell-based; settings: intracellular cAMP in differentiated L6-myotubes, compound at 10 μM, activity relative to isoproterenol at 10 μM; for Emax at 10 µM: 0.25 h
Method in brief: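 Serum-starved differentiated L6 myotubes stimulated 15 min with test compound at 1×10^−5 M final (isoprenaline as reference) in HBSS with 1% BSA, 5 mM HEPES, 1 mM IBMX, pH 7.4. Cells EtOH-extracted, lysed, and intracellular cAMP measured by AlphaScreen.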

| SMILES | Emax at 10 µM [1] | Emax at 10 µM [2] | Biological example 2 (GU) [1] | Biological example 3 (CAMP) [2] |
| --- | --- | --- | --- | --- |
| O[C@H](c1cncc(F)c1)[C@H]1CC[C@@H](Cc2ccc(Cl)cc2)N1 [Compound 404, (R)-{(2R,5S)-5-[(p-chlorophenyl)methyl]-2-pyrrolidinyl}(5-fluoro-3-pyridyl)methanol] | > 75% | < 25% |  |  |
| O[C@@H](c1cncc(F)c1)[C@H]1CC[C@H](Cc2ccc(Cl)cc2)N1 [Compound 405, (S)-{(2R,5R)-5-[(p-chlorophenyl)methyl]-2-pyrrolidinyl}(5-fluoro-3-pyridyl)methanol] | > 75% | < 25% |  |  |
| O[C@H](c1cncc(F)c1)[C@H]1CC[C@H](Cc2ccc(Cl)cc2)N1 [Compound 406, (R)-{(2R,5R)-5-[(p-chlorophenyl)methyl]-2-pyrrolidinyl}(5-fluoro-3-pyridyl)methanol] | > 75% | < 25% |  |  |
| CCOC(=O)CO[C@H]1CC[C@@H](C(C)(C)NC[C@H](O)c2cccc(F)c2)CC1 [Compound 407, ethyl[[(1S,4s)-4-{1-[(R)-2-(m-fluorophenyl)-2-hydroxyethylamino]-1-methylethyl}cyclohexyloxy]]acetate] | 50 to 75% | < 25% |  |  |
| CC(C)(NC[C@H](O)c1cccc(F)c1)[C@H]1CC[C@@H](OCC(=O)O)CC1 [Compound 408] | 50 to 75% | < 25% |  |  |
| CCOC(=O)CO[C@H]1CC[C@H](C(C)(C)NC[C@H](O)c2cncc(F)c2)CC1 [Compound 409, ethyl[[(1R,4r)-4-{1-[(R)-2-(5-fluoro-3-pyridyl)-2-hydroxyethylamino]-1-methylethyl}cyclohexyloxy]]acetate] | > 75% | < 25% |  |  |
| CO[C@H]1CC[C@H](CCC23CCC([C@@H](O)c4cccc(F)c4)(CC2)N3)CC1 [Compound 410] |  |  | ++ (if it is between 75 and 50% it is denoted with ++) | − (if it less than 25% it is denoted with −) |
| CO[C@H]1CC[C@H](CCC23CCC([C@@H](O)c4cccc(F)c4)(CC2)N3)CC1 [Compound 411] |  |  | +++ (If a compound at 10 μM shows activity of more than 75% of that of isoproterenol at 10 μM, the activity is denoted with +++) | ++ (if it is between 75 and 50% it is denoted with ++) |
| O[C@H](c1cccc(F)c1)C12CCC(Cc3ccc(F)cc3)(CC1)N2 [Compound 413, (R)-(m-fluorophenyl){4-[(p-fluorophenyl)methyl]-7-azabicyclo[[2.2.1]]hept-1-yl}methanol] | > 75% | < 25% |  |  |
| CC(C)(C[C@H]1CC[C@@H](NC(=O)OC(C)(C)C)CC1)NC[C@H](O)c1cccc(C#N)n1 [Compound 414, (1R,4s)-4-{2-[(S)-2-(6-cyano-2-pyridyl)-2-hydroxyethylamino]-2-methylpropyl}cyclohexly 2-methyl-2-propanecarbamate] | 50 to 75% | < 25% |  |  |
| CC(C)(C[C@H]1CC[C@H](N)CC1)NC[C@@H](O)c1cccc(C#N)n1 [Compound 415] | 50 to 75% | < 25% |  |  |
| CC(C)(C[C@H]1CC[C@@H](N)CC1)NC[C@@H](O)c1cccc(C#N)n1 [Compound 416] | 50 to 75% | < 25% |  |  |
| CC(C)(C[C@H]1CC[C@H](N)CC1)NC[C@H](O)c1cccc(C#N)n1 [Compound 417] | > 75% | 25 to 50% |  |  |
| CC(C)(C[C@H]1CC[C@@H](N)CC1)NC[C@H](O)c1cccc(C#N)n1 [Compound 418, 6-[(S)-2-{1,1-dimethyl-2-[(1s,4R)-4-aminocyclohexyl]ethylamino}-1-hydroxyethyl]-2-pyridinecarbonitrile] | 50 to 75% | < 25% |  |  |
| CC(C)(NC[C@H](O)c1cncc(F)c1)[C@H]1CC[C@H](OCC(=O)O)CC1 [Compound 419] | 50 to 75% | < 25% |  |  |
| CC(C)(C[C@H]1CC[C@H](NC(=O)OC(C)(C)C)CC1)NC[C@H](O)c1cccc(F)c1 [Compound 420, (1R,4r)-4-{2-[(R)-2-(m-fluorophenyl)-2-hydroxyethylamino]-2-methylpropyl}cyclohexy-2-methyl-2-propanecarbamate] | 50 to 75% | 25 to 50% |  |  |
| CC(=O)N[C@H]1CC[C@@H](CC(C)(C)NC[C@H](O)c2cccc(C#N)n2)CC1 [Compound 421] | > 75% | < 25% |  |  |
| CC(C)(C[C@H]1CC[C@@H](NS(C)(=O)=O)CC1)NC[C@H](O)c1cccc(C#N)n1 [Compound 422, 6-[(S)-2-{1,1-dimethyl-2-[(1s,4R)-4-(mesylamino)cyclohexyl]ethylamino}-1-hydroxyethyl]-2-pyridinecarbonitrile] | 50 to 75% | < 25% |  |  |
| CC(=O)N[C@H]1CC[C@@H](CC(C)(C)NC[C@@H](O)c2cccc(C#N)n2)CC1 [Compound 423] | < 25% | < 25% |  |  |
| CC(C)(C[C@H]1CC[C@@H](NS(C)(=O)=O)CC1)NC[C@@H](O)c1cccc(C#N)n1 [Compound 424, 6-[(R)-2-{1,1-dimethyl-2-[(1s,4S)-4-(mesylamino)cyclohexyl]ethylamino}-1-hydroxyethyl]-2-pyridinecarbonitrile] | 25 to 50% | < 25% |  |  |
| CC(=O)N[C@H]1CC[C@H](CC(C)(C)NC[C@H](O)c2cccc(C#N)n2)CC1 [Compound 425] | > 75% | 25 to 50% |  |  |
| CC(C)(C[C@H]1CC[C@H](NS(C)(=O)=O)CC1)NC[C@H](O)c1cccc(C#N)n1 [Compound 426, 6-[(S)-2-{1,1-dimethyl-2-[(1r,4S)-4-(mesylamino)cyclohexyl]ethylamino}-1-hydroxyethyl]-2-pyridinecarbonitrile] | > 75% | < 25% |  |  |
| CC(=O)N[C@H]1CC[C@H](CC(C)(C)NC[C@@H](O)c2cccc(C#N)n2)CC1 [Compound 427] | < 25% | < 25% |  |  |
| CC(C)(C[C@H]1CC[C@H](NS(C)(=O)=O)CC1)NC[C@@H](O)c1cccc(C#N)n1 [Compound 428, 6-[(R)-2-{1,1-dimethyl-2-[(1r,4R)-4-(mesylamino)cyclohexyl]ethylamino}-1-hydroxyethyl]-2-pyridinecarbonitrile] | < 25% | < 25% |  |  |
| CC(C)(C[C@H]1CC[C@H](NC(=O)C(C)(C)C)CC1)NC[C@H](O)c1cccc(F)c1 [Compound 429] | > 75% | 25 to 50% |  |  |
| CN(C)C(=O)N[C@H]1CC[C@H](CC(C)(C)NC[C@H](O)c2cccc(F)c2)CC1 [Compound 430, (R)-2-{1,1-dimethyl-2-[(1r,4R)-4-(3,3-dimethylureido)cyclohexyl]ethylamino}-1-(m-fluorophenyl)-1-ethanol] | > 75% | 50 to 75% |  |  |
| CC(C)(C[C@H]1CC[C@H](NC(=O)C2CCC2)CC1)NC[C@H](O)c1cccc(F)c1 [Compound 431] | > 75% | 50 to 75% |  |  |
| CC(C)(C[C@H]1CC[C@H](NC(=O)C2CC2)CC1)NC[C@H](O)c1cccc(F)c1 [Compound 432] | > 75% | > 75% |  |  |
| CC(C)(C[C@H]1CC[C@H](NC(=O)C(F)(F)F)CC1)NC[C@H](O)c1cccc(F)c1 [Compound 433] |  |  | +++ (If a compound at 10 μM shows activity of more than 75% of that of isoproterenol at 10 μM, the activity is denoted with +++) | + (if it is between 50 and 25% it is denoted with +) |
